Data on twelve compounds can be found in patent publication US11584775B2, “C4-modified oleanolic acid derivatives for inhibition of IL-17 and other uses” (REATA PHARMACEUTICALS, INC., priority 2015, dated 2023).

As usually defined, the IC50 is the concentration needed to halve the response being measured.

In test [1] the test system is IFNγ-induced Nitric Oxide production. Description: Nitric oxide production assay in RAW 264.7 mouse macrophages. The settings on record: RAW264.7, suppression of IFNγ-induced NO production normalized to cell viability (WST-1), RAW 264.7, 24 hours IFNγ. It counts as cell-based. In outline:
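Cells pre-treated 2 h with compound (0.4-200 nM or 2-1000 nM) in RPMI 1640 + 0.5% FBS, then stimulated with recombinant mouse IFNγ for 24 h at 37 °C. Nitrite measured by Griess reagent, viability by WST-1; IC50 from NO suppression normalized to viability and to DMSO/IFNγ controls.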
(In general: Formazan colour is commonly taken as a measure of viable cells.)

The test system of a further test is NRF2. Description: AREc32 luciferase reporter assay. It counts as cell-based, human. The settings on record: EC2×: concentration required to increase GST ARE Luciferase reporter activity by 2-fold; AREc32 cells, 19 hours. In a few lines: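 AREc32 cells (MCF-7 stably carrying eight rat GSTA2 ARE copies driving firefly luciferase) treated 19 h with compound (0.4–200 nM or 2–1000 nM), triplicate. Luminescence normalized to DMSO as fold-induction; variable-slope fit capped at 50-fold; EC2× = concentration giving 2-fold induction.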
In general terms: In a reporter assay the amount or activity of a reporter protein is the signal.

In another test the test system is hIL17. The test can be described thus: IL-17 release from differentiated primary human T-cells (IL-17A HTRF assay). It counts as cell-based. To be noted: inhibition of IL-17A levels; primary human CD4+ T cells differentiated into Th17 cells, 46-hour incubation. In a few lines:
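Cryopreserved primary human CD4+ T cells were activated with anti-CD3/CD28 beads and driven to Th17 with TGF-β, IL-6, IL-23 and IL-1β in the presence of compound (2-500 nM or 4-1000 nM) for 46 h at 37° C. Supernatant IL-17A was quantified by HTRF against a standard curve and normalized to DMSO. IC50s came from variable-slope fits, with viability read by CyQuant.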
(In general: TR-FRET usually uses a lanthanide donor and a delayed reading to cut background.)

In a further test the target is T1, human RORγ (Homo sapiens, UniProt P51449).
T1 sequence (P51449 269-508 limits assumed): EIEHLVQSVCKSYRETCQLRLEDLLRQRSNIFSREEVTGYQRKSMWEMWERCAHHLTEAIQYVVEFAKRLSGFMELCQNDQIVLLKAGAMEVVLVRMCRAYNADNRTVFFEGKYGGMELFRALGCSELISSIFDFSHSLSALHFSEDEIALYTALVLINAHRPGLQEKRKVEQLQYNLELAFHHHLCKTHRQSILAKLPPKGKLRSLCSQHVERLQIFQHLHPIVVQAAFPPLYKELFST
The test can be described thus: RORγ assay (GAL4-RORγ hybrid luciferase reporter, inverse-agonist activity). It counts as cell-based. The settings on record: GAL4-RORγ hybrid reporter cells, 23 hours. In a few lines:
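Human cell line expressing GAL4-DBD/RORγ hybrid with UAS-driven luciferase, treated in triplicate with compound (0.4–200 nM or 2–1000 nM) for 23 h at 37 °C. Luminescence normalized to DMSO; viability measured in parallel by multiplex assay. IC50 for RORγ and viability by variable-slope nonlinear regression.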

In the case of `CC1(C)CC[C@]2(NC(=O)C(C)(F)F)CC[C@]3(C)[C@H](C(=O)C=C4[C@@]5(C)C=C(C#N)C(=O)[C@@](C)(O)[C@@H]5CC[C@]43C)[C@@H]2C1` [Compound T27, N-((4aS,6aR,6bS,8aR,9S,12aS,14aR,14bS)-11-cyano-9-hydroxy-2,2,6a,6b,9,12a-hexamethyl-10,14-dioxo-1,3,4,5,6,6a,6b,7,8,8a,9,10,12a,14,14a,14b-hexadecahydropicen-4a(2H)-yl)-2,2-difluoropropanamide], the IC50 in test [1] was 146 nM; in the test with hIL17 it was 62 nM; on human RORγ it was 410 nM. The “EC2x: concentration giving 2-fold induction of ARE luciferase reporter” value with NRF2 is on record as 396 nM.

For the compound `CC1(C)CC[C@]2(NC(=O)C(C)(F)F)CC[C@]3(C)[C@H](C(=O)C=C4[C@@]5(C)C=C(C#N)C(=O)[C@@](C)(CO)[C@@H]5CC[C@]43C)[C@@H]2C1` [Compound T28, N-((4aS,6aR,6bS,8aR,9R,12aS,14aR,14bS)-11-cyano-9-(hydroxymethyl)-2,2,6a,6b,9,12a-hexamethyl-10,14-dioxo-1,3,4,5,6,6a,6b,7,8,8a,9,10,12a,14,14a,14b-hexadecahydropicen-4a(2H)-yl)-2,2-difluoropropanamide], the IC50 was 21.1 nM in test [1], 67 nM with hIL17 and 463 nM on human RORγ. The “EC2x: concentration giving 2-fold induction of ARE luciferase reporter” value with NRF2 was 117 nM.

In the case of `CC(=O)OC[C@]1(C)C(=O)C(C#N)=C[C@]2(C)C3=CC(=O)[C@@H]4[C@@H]5CC(C)(C)CC[C@]5(NC(=O)C(C)(F)F)CC[C@@]4(C)[C@]3(C)CC[C@H]21` [Compound T29, ((4R,4aR,6aS,6bR,8aS,12aS,12bR,14bS)-2-cyano-8a-(2,2-difluoropropanamido)-4,6a,6b,11,11,14b-hexamethyl-3,13-dioxo-3,4,4a,5,6,6a,6b,7,8,8a,9,10,11,12,12a,12b,13,14b-octadecahydropicen-4-yl)methyl acetate], the IC50 in test [1] came out at 118 nM; with hIL17, 37 nM; on human RORγ it was 141 nM. Moreover, the “EC2x: concentration giving 2-fold induction of ARE luciferase reporter” value in the test with NRF2 is reported as 360 nM.

With `CN(C)C(=O)[C@]12CCC(C)(C)C[C@H]1[C@H]1C(=O)C=C3[C@@]4(C)C=C(C#N)C(=O)[C@@](C)(O)[C@@H]4CC[C@@]3(C)[C@]1(C)CC2` [Compound T30, (4aS,6aR,6bS,8aR,9S,12aS,14aR,14bS)-11-cyano-9-hydroxy-N,N,2,2,6a,6b,9,12a-octamethyl-10,14-dioxo-1,3,4,5,6,6a,6b,7,8,8a,9,10,12a,14,14a,14b-hexadecahydropicene-4a(2H)-carboxamide], the IC50 in test [1] was found to be 173 nM; with hIL17 it was 59 nM; at human RORγ, 164 nM. Besides, the “EC2x: concentration giving 2-fold induction of ARE luciferase reporter” value in the test with NRF2 came to 448 nM.

Turning to `CC1(C)CC[C@@]23CC[C@@]4(C)[C@]5(C)CC[C@@H]6[C@](C)(C=C(C#N)C(=O)[C@@]6(C)CO)C5=CC(=O)[C@]4(OC2=O)[C@@H]3C1` [Compound T31, (4R,4aR,6aR,6bS,8aS,12aR,12bS,14bS)-4-(hydroxymethyl)-4,6a,6b, 11,11,14b-hexamethyl-3,13,16-trioxo-4,4a,5,6,6a,6b,7,8,10,11,12,12a,13,14b-tetradecahydro-3H,9H-12b,8a-(epoxymethano)picene-2-carbonitrile], the values for the IC50 (in test [1]; in the test with hIL17; on human RORγ) were 10.5 nM, 20 nM and 177 nM, respectively. In addition, the “EC2x: concentration giving 2-fold induction of ARE luciferase reporter” value with NRF2 is on record as 21 nM.

Consider `CC(=O)OC[C@]1(C)C(=O)C(C#N)=C[C@]2(C)C3=CC(=O)[C@]45OC(=O)[C@@]6(CCC(C)(C)C[C@H]64)CC[C@@]5(C)[C@]3(C)CC[C@H]21` [Compound T32, ((4R,4aR,6aR,6bS,8aS,12aR,12bS,14bS)-2-cyano-4,6a,6b, 11,11,14b-hexamethyl-3,13,16-trioxo-4,4a,5,6,6a,6b,7,8,10,11,12,12a,13,14b-tetradecahydro-3H,9H-12b,8a-(epoxymethano)picen-4-yl)methyl acetate], for which the results for the IC50 (in test [1]; with hIL17; on human RORγ) were 115 nM, 28 nM and 118 nM, respectively. The “EC2x: concentration giving 2-fold induction of ARE luciferase reporter” value in the test with NRF2 amounted to 243 nM.

Consider `CC1(C)CC[C@@]23CC[C@@]4(C)[C@]5(C)CC[C@H]6[C@](C)(O)C(=O)C(C#N)=C[C@]6(C)C5=CC(=O)[C@]4(OC2=O)[C@@H]3C1` [Compound T33, (4S,4aR,6aR,6bS,8aS,12aR,12bS,14bS)-4-hydroxy-4,6a,6b, 11,11,14b-hexamethyl-3,13,16-trioxo-4,4a,5,6,6a,6b,7,8,10,11,12,12a,13,14b-tetradecahydro-3H,9H-12b,8a-(epoxymethano)picene-2-carbonitrile], for which the IC50 in test [1] worked out at 79.9 nM; in the test on hIL17 it was 25 nM; on human RORγ it was 220 nM. Also, in the test on NRF2, the “EC2x: concentration giving 2-fold induction of ARE luciferase reporter” value was 120 nM.

On to `COC(=O)[C@]1(C)C(=O)C(C#N)=C[C@]2(C)C3=CC(=O)[C@]45OC(=O)[C@@]6(CCC(C)(C)C[C@H]64)CC[C@@]5(C)[C@]3(C)CC[C@@H]12` [Compound T34, methyl (4S,4aR,6aR,6bS,8aS,12aR,12bS,14bS)-2-cyano-4,6a,6b, 11,11,14b-hexamethyl-3,13,16-trioxo-4,4a,5,6,6a,6b,7,8,10,11,12,12a,13,14b-tetradecahydro-3H,9H-12b,8a-(epoxymethano)picene-4-carboxylate], for which the IC50 turned out to be 383 nM in test [1], 46 nM in the test on hIL17 and 268 nM on human RORγ. For the same compound, the “EC2x: concentration giving 2-fold induction of ARE luciferase reporter” value with NRF2 is 377 nM.

Regarding `CNC(=O)[C@]1(C)C(=O)C(C#N)=C[C@]2(C)C3=CC(=O)[C@]45OC(=O)[C@@]6(CCC(C)(C)C[C@H]64)CC[C@@]5(C)[C@]3(C)CC[C@@H]12` [Compound T35, (4S,4aR,6aR,6bS,8aS,12aR,12bS,14bS)-2-cyano-N,4,6a,6b, 11,11,14b-heptamethyl-3,13,16-trioxo-4,4a,5,6,6a,6b,7,8,10,11,12,12a,13,14b-tetradecahydro-3H,9H-12b,8a-(epoxymethano)picene-4-carboxamide], the results for the IC50 (in test [1]; with hIL17; on human RORγ) were above 1000 nM, 68 nM and 413 nM, respectively. Further, the “EC2x: concentration giving 2-fold induction of ARE luciferase reporter” value in the test on NRF2 is recorded as above 1000 nM.

As for `CC1(C)CC[C@@]23CC[C@@]4(C)[C@]5(C)CC[C@H]6[C@](C)(C(N)=O)C(=O)C(C#N)=C[C@]6(C)C5=CC(=O)[C@]4(OC2=O)[C@@H]3C1` [Compound T37, (4S,4aR,6aR,6bS,8aS,12aR,12bS,14bS)-2-cyano-4,6a,6b, 11,11,14b-hexamethyl-3,13,16-trioxo-4,4a,5,6,6a,6b,7,8,10,11,12,12a,13,14b-tetradecahydro-3H,9H-12b,8a-(epoxymethano)picene-4-carboxamide], the 50% inhibitory concentration (IC50) is above 1000 nM in test [1], 336 nM in the test with hIL17 and 1350 nM on human RORγ. For the same compound, the “EC2x: concentration giving 2-fold induction of ARE luciferase reporter” value in the test with NRF2 is listed as above 1000 nM.

On to `COC(=O)[C@]12CCC(C)(C)C[C@H]1[C@@]1(O)C(=O)C=C3[C@@]4(C)C=C(C#N)C(=O)[C@@](C)(O)[C@@H]4CC[C@@]3(C)[C@]1(C)CC2` [Compound T38, methyl (4aS,6aS,6bR,8aR,9S,12aS,14aS,14bR)-11-cyano-9,14a-dihydroxy-2,2,6a,6b,9,12a-hexamethyl-10,14-dioxo-1,3,4,5,6,6a,6b,7,8,8a,9,10,12a,14,14a,14b-hexadecahydropicene-4a(2H)-carboxylate], for which the values for the IC50 (in test [1]; in the test on hIL17; at human RORγ) were 57.2 nM, 16 nM and 177 nM, respectively. Besides, in the test on NRF2, the “EC2x: concentration giving 2-fold induction of ARE luciferase reporter” value is recorded as 80 nM.

Take `COC(=O)N[C@]12CCC(C)(C)C[C@H]1[C@H]1C(=O)C=C3[C@@]4(C)C=C(C#N)C(=O)[C@@](C)(O)[C@@H]4CC[C@@]3(C)[C@]1(C)CC2` [Compound T39, methyl ((4aS,6aR,6bS,8aR,9S,12aS,14aR,14bS)-11-cyano-9-hydroxy-2,2,6a,6b,9,12a-hexamethyl-10,14-dioxo-1,3,4,5,6,6a,6b,7,8,8a,9,10,12a,14,14a,14b-hexadecahydropicen-4a(2H)-yl)carbamate]: the IC50 in test [1] turned out to be 91.2 nM; in the test on hIL17 it was 47 nM; at human RORγ, 364 nM. In the test on NRF2, the “EC2x: concentration giving 2-fold induction of ARE luciferase reporter” value is listed as 218 nM.
